# Measurements reported in patent publication US9717222B2, “Taste independent brain nutrient sensor that mediates hunger” (New York University, priority 2014, dated 2017).
# “Also recorded” adds a separate entry of the source.
# Experiments:
# hemolymph glycemia = test: Prandial rise of hemolymph glycemia after glucose feeding with or without phlorizin; assay type: in vivo, Drosophila melanogaster; settings: 18-hour starved flies fed 100 mM glucose with 10 mM phlorizin for 20 minutes (FIG. 1b)
# Experimental: Glycogen and glycemia were measured as previously described^6. For the prandial rise of hemolymph glycemia, flies were starved for 18 hours, and then fed with 100 mM glucose (with or without 10 mM phlorizin) for 15-20 minutes. Their hemolymph was immediately collected and measured.
# Drosophila melanogaster = test: Two-choice feeding assay (food preference); assay type: in vivo; settings: for food choice: 200 mM L-glucose+phlorizin versus 50 mM D-glucose+phlorizin: 18 hours food deprivation (FIG. 4); for food choice: glucose mixed with phlorizin versus plain agar: 100 mM glucose
# Experimental: Feeding assays were performed as previously described^6 using 50 flies per two-choice arena. Briefly, ˜50 4-8 days old male flies were starved in an empty vial with wet Kim wipe for 5 or 18 hours, and then given a choice between two sugars, or a sugar and plain agar for 2 hours. Food preference was determined as percent preference index (PI %) by scoring the abdomen color of each fly: % PI=(#eaten food1+0.5×#eaten both)−(#eaten food2+0.5×#eaten both)]/(total #flies eaten) All sugars, except for L-glucose (Carbosynth), were from Sigma. For FIG. 1c, 10 mM phlorizin (Sigma) was added to warm agar with or without sugar. For the experiments in the dark, individual plates were wrapped in aluminum foil and then placed in a dark drawer while tested flies were making a choice between the two substrates. For the neural silencing experiments, flies bearing UAS-Kir2.1, Ptubulin-GAL80^ts, and a GAL4 driver were treated as described^17. These flies were raised at 18° C., incubated at 29° C. for 40 hours, starved at 29° C. for next 18 hrs and then tested in the two-choice assay at room temperature. For a negative control, the flies were raised and starved at 18° C., and tested at room temperature. Because metabolism is slower at 18° C. than at 25-29° C., the flies at 18° C. needed to be starved for a longer period. Thus, we determined that the 18 hours of starvation at 25-29° C. is equivalent to the 50-60 hours of starvation at 18° C. Also, see FIG. 11.
structure (smiles),measurement,setting,value
O=C(CCc1ccc(O)cc1)c1c(O)cc(O)cc1O[C@@H]1O[C@H](CO)[C@@H](O)[C@H](O)[C@H]1O [Phlorizin],prandial rise in hemolymph glycemia,hemolymph glycemia,preventing a prandial rise in glycemia
same,food choice: 200 mM L-glucose+phlorizin versus 50 mM D-glucose+phlorizin,Drosophila melanogaster; control flies,chose the more concentrated (sweeter) L-glucose; also recorded: chose the sweeter L-glucose
same,food choice: glucose mixed with phlorizin versus plain agar,"Drosophila melanogaster; control poxnΔM22-B5;SuperA158, 18 h food deprived, 10 mM phlorizin (FIG. 1c)",can distinguish glucose mixed with phlorizin from agar
same,food choice: 200 mM L-glucose+phlorizin versus 50 mM D-glucose+phlorizin,Drosophila melanogaster; taste-blind (poxnΔM22-B5) and sugar-blind (Gr5a;Gr64a) mutants,failed to discriminate between Lglucose+phlorizin and D-glucose+phlorizin; also recorded: showed equal preference for these two enantiomers
same,food choice: fructose mixed with phlorizin versus plain agar,"Drosophila melanogaster; taste-blind poxnΔM22-B5, 18 h food deprived, 100 mM fructose, 10 mM phlorizin (FIG. 1c)",able to detect the nutritional value of fructose mixed with phlorizin
same,food choice: glucose mixed with phlorizin versus plain agar,"Drosophila melanogaster; taste-blind poxnΔM22-B5, 18 h food deprived, 10 mM phlorizin (FIG. 1c)",failed to consume glucose mixed with phlorizin
